From patent US9402875B2, “Amidated dopamine neuron stimulating peptide restoration of mitochondrial activity” (University of Kentucky Research Foundation, priority 2006, dated 2016)
Ends that are not written are not given here.

Key:
[1] = tested on: MN9D cells; assay: TUNEL staining, mitochondrial toxins; assay type: cell-based
Protocol: MN9D cells and B65 cells were cultured in Dulbecco's Modified Eagle's Medium (DMEM; 11995 (containing pyridoxol HCl); Sigma, St. Louis, Mo.) supplemented with 10% fetal bovine serum (HyClone, Logan, Utah), 50 U/mL penicillin and streptomycin. For each assay the cells were treated with mitochondrial-specific environmental toxins, i.e., MPP+, rotenone, and/or TaClo, and with or without DNSP-11. After incubation with the toxins, the cells were plated on 24-well poly-D-lysine plates (50,000 cells/well) for TUNEL assay (as described below) or 100,000 cell/well for caspase-3 assay in DMEM medium with 1% (v/v) penicillin-streptomycin only (as described below).
Terminal deoxynucleotidyl transferase mediated X-dUTP nicked end DNA labeling of cells (TUNEL staining) was used to assess cells undergoing apoptosis. […] The biotinylated nucleotides are detected by using streptavidin-horseradish peroxidase conjugate followed by the substrate, diaminobenzidine (DAB). […] Cell were counted with 20× magnification (4 random fields/well), 4 wells per group. Ratio between apoptotic cells and total cells was calculated. […]

[2] = tested on: normal young male Fischer 344 rats; assay: Striatal microdialysis 28 days after intranigral DNSP-11; assay type: in vivo, rat
Protocol: Infusion Delivery of DNSP-11 or Vehicle: Isoflurane anesthetized (1.5-2.5%) F344 rats received 5 μl of 6 μg/μL DNSP-11 solution or citrate buffer vehicle solution in a blinded manner. Treatment was delivered to the nigral cell bodies using the same stereotaxic coordinates and protocol for solution delivery as in studies of GDNF.
Reverse Microdialysis: Reverse in vivo microdialysis was accomplished using methods and brain coordinates described by Hebert et al. (1996)J Pharmacol. Exper. Ther. 279:1181-1190. CMA 11 microdialysis probes with a 4.0 mm membrane length and 6 kDa molecular weight cut-off were placed within the rat striatum.
Prior studies with GDNF have shown robust effects on both potassium and amphetamine-evoked release 28 days after a single injection into the rat substantia nigra (Hebert et al. (1997) J. Pharm. Exp. Thera. 282: 760) indicating the functional effects of this trophic factor on dopamine signaling in the normal rat striatum. In the present experiment, 30 μg of DNSP-11 was injected into the right substantia nigra of normal young male Fischer 344 rats. Twenty-eight days after injection, in vivo microdialysis was performed in these animals to investigate dopamine neurochemistry in the ipsilateral striatum. […] Winkler et al. (1996) J. Neurosci. 16: 7206; Hebert et al. (1996) J Pharmacol Exper Ther. 279: 1181-1190 (1996).

[3] = tested on: unilateral 6-OHDA-lesioned rats; assay: Neurochemical content of tissue (HPLC-EC); assay type: in vivo, rat; conditions: 5 weeks after infusion
Protocol: Unilateral 6-OHDA Lesions: The 6-OHDA solution was delivered to two injection sites along the medial forebrain bundle (MFB) using a protocol described by Lundblad et al. (2002) Eur. J. Neurosci. 15:120-132. Five weeks after the unilateral 6-OHDA MFB lesion procedure, animals were grouped based on apomorphine (0.05 mg/kg, s.c.)-induced rotational behaviour: Animals with >300 rotations per 60 minutes were selected. Lesioned animals received 5 vit of either a 20 μg/vd, DNSP-11 solution or citrate buffer vehicle solution in a manner similar to infusion delivery in normal animals.
Neurochemical Content of Tissue: Lesioned animals were euthanized 5 weeks after DNSP-11 or vehicle infusion. The brains were sliced into 1 mm thick sections. […]
The in vitro studies and in vivo measures of the effects of DNSP-11 led to an investigation of the potential neurorestorative properties of DNSP-11 to damaged dopamine neurons in a unilateral rat model of PD. […] At 5 weeks, the substantia nigra and striatum from each rat was analyzed by high performance liquid chromatography coupled with electrochemical detection.
Rats were tested 3-4 weeks after the injection of 6-OHDA using low-dose (0.05 mg/kg, i.p.) apomorphine to induce rotational behavior. […] At 5 weeks, the substantia nigra and striatum from each rat was analyzed by high performance liquid chromatography coupled with electrochemical detection.

[4] = ipsilateral striatum, 28 days after 30 μg into right substantia nigra

PPEAPAEDRSL-NH2 [DNSP-11, PPEAPAEDRSL-amide]
TUNEL staining, protection from toxins ([1]; MPP+, rotenone or TaClo 1 to 12 hours, pretreatment with 10 nM or 100 nM DNSP-11): significant protection
TUNEL staining, DNSP-11 alone ([1]; no toxin): no significant effect
Basal DA ([2]; 28 days after delivery, vehicle 26.0±2.7 nM): 45.8 ± 7.7 nM
Basal concentrations of HVA ([2]; 28 days after delivery, vehicle 2419±251 nM): 4.516 ± 0.502 µM
Basal concentrations of DOPAC ([2]; 28 days after delivery, vehicle 3355±338 nM): 6.544 ± 0.836 µM
resting levels of HVA, increase vs controls [2, 4]: over 100%
resting levels of dopamine, increase vs controls [2, 4]: over 100%
DOPAC tissue content, substantia nigra ([3]; vehicle 7.10±1.40 ng/g): 16.48 ± 4.01 ng/g
DA content, substantia nigra ([3]; vehicle 34.7±6.4 ng/g): 59.1 ± 7.3 ng/g
